Reference: US8563741B2, “CDK inhibitors containing a zinc binding moiety” (Curis, Inc., priority 2007, dated 2013)

How the values were obtained:
Type in all cases: biochemical
HDAC = HDAC fluorimetric assay kit (AK-500, Biomol), HeLa nuclear extract
Description: HDAC inhibitors were screened using an HDAC fluorimetric assay kit (AK-500, Biomol, Plymouth Meeting, Pa.). […] Each assay was setup as follows: Defrosted all kit components and kept on ice until use. Diluted HeLa nuclear extract 1:29 in Assay Buffer (50 mM Tris/Cl, pH 8.0, 137 mM NaCl, 2.7 mM KCl, 1 mM MgCl2). Prepared dilutions of Trichostatin A (TSA, positive control) and tested compounds in assay buffer (5× of final concentration). Diluted Fluor de LysTM Substrate in assay buffer to 100 uM (50 fold=2× final). Diluted Fluor de LysTM developer concentrate 20-fold (e.g. 50 μl plus 950 μl Assay Buffer) in cold assay buffer. Second, diluted the 0.2 mM Trichostatin A 100-fold in the 1× Developer (e.g. 10 μl in 1 ml; final Trichostatin A concentration in the 1× Developer=2 μM; final concentration after addition to HDAC/Substrate reaction=1 μM). Added Assay buffer, diluted trichostatin A or test inhibitor to appropriate wells of the microtiter plate. Added diluted HeLa extract or other HDAC sample to all wells except for negative controls. Allowed diluted Fluor de LysTM Substrate and the samples in the microtiter plate to equilibrate to assay temperature (e.g. 25 or 37° C. Initiated HDAC reactions by adding diluted substrate (25 μl) to each well and mixing thoroughly. Allowed HDAC reactions to proceed for 1 hour and then stopped them by addition of Fluor de LysTM Developer (50 μl). Incubated plate at room temperature (25° C.) for 10-15 min. Read samples in a microtiter-plate reading fluorimeter capable of excitation at a wavelength in the range 350-380 nm and detection of emitted light in the range 440-460 nm.

CDK6/cyclinD3 = target: T1, CDK6/cyclinD3 (Homo sapiens, UniProt Q00534); assay: CDK activity assay with p33 ATP, CDK6/cyclinD3; settings: 1 μM ATP; read-out: CDK6/cyclinD IC50
T1 construct: N-terminal, 6His-tagged full-length human cdk6 (MW=38 kDa); 6His (N); made in house; host or cells: Sf21 cells
T1 sequence (Q00534 whole entry): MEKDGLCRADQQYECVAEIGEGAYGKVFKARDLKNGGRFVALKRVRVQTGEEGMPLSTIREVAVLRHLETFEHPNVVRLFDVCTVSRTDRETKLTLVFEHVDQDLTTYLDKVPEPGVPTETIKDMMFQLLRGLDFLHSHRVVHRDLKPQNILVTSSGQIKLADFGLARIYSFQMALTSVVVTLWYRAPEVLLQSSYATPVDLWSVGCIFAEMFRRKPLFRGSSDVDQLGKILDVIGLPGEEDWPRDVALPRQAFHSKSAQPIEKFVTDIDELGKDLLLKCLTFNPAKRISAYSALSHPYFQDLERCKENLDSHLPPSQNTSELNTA
T1 sequence (P30281 whole entry partner): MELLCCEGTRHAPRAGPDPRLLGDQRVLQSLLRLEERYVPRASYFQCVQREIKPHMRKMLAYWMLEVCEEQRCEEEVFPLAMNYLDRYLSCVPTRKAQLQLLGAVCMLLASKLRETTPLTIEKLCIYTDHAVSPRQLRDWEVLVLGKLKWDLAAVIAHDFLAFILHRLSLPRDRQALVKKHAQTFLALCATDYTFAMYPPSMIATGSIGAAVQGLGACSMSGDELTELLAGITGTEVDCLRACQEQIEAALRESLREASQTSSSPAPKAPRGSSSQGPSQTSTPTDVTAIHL
Description: CDK6/cyclinD3 (Accession Number for CDK6; GenBank X66365, for Cyclin D3; EMBL M90814):
N-terminal, 6His-tagged full-length human cdk6 (MW=38 kDa) complexed with N-terminal GST-tagged full-length human cyclin D3 (MW=59 kDa) were expressed in Sf21 cells. Recombinant protein complex was purified using glutathione-agarose and activated with CAK, and repurified with Ni2+/NTA-agarose column. Purity was measured to be at least 68%. Specific Activity was measured to be 39 U/mg, where one unit of cdk6/cyclinD3 activity is defined as 1 nmol phosphate incorporated into 0.1 mg/ml histone H1 per minute at 30° C. with a final ATP concentration of 100 μM. Enzyme was stored at concentration of 0.1 mg/ml in 50 mM Tris-HCl, pH 7.5, 270 mM sucrose, 150 mM NaCl, 1 mM benzamidine, 0.2 mM PMSF, 0.1% 2-mercaptoethanol, 0.1 mM EGTA, 0.03% Brij 35.

CDK4/cyclinD1 = target: T2, CDK4/cyclinD1 (Homo sapiens, UniProt P11802); assay: CDK activity assay with p33 ATP, CDK4/cyclinD1; settings: 1 μM ATP
T2 construct: Recombinant Human Full-length GST-tagged CDK-4 (MW=61.8 kDa) and cyclinD1 (MW=61.2 kDa); GST; made in house; host or cells: insect cells
T2 sequence (P11802 whole entry): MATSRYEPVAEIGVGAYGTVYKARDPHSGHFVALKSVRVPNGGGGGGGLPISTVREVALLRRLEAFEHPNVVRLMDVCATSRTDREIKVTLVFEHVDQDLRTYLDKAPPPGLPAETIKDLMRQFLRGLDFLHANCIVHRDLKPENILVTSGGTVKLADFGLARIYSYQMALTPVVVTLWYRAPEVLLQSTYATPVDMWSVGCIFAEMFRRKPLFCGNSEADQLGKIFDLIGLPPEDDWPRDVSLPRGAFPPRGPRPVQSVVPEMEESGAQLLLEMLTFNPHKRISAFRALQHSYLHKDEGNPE
T2 sequence (P24385 whole entry partner): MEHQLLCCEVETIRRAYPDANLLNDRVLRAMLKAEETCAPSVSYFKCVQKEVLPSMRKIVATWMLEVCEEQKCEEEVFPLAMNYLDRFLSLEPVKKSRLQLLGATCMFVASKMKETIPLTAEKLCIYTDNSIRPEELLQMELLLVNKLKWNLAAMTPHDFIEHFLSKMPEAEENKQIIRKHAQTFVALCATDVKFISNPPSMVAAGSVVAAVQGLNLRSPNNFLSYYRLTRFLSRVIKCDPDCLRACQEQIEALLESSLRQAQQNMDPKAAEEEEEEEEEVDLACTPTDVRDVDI
Description: Recombinant Human Full-length GST-tagged CDK-4 (MW=61.8 kDa) and cyclinD1 (MW=61.2 kDa) were expressed in insect cells. […] Activity was determined at a final protein concentration at 8.33 μg/mL.
RBC-CTF (Substrate for CDK4):
Human RB protein (S773-K928, MW=44.46 kDa), N-terminal GST-tagged was purified and followed with a factor Xa cleavage, which was performed in 4 mM concentration of glutathione, Purified protein was stocked at a concentration of 0.67 mg/ml.
2 nM CDK4/cyclinD1 and 1 μM RB-CTF were mixed in the reaction buffer with final concentration of 1 μM ATP and 1% DMSO.

CDK2/cyclinE = target: T3, CDK2/cyclinE (Homo sapiens, UniProt P24941); assay: CDK activity assay with p33 ATP, CDK2/cyclinE; settings: 1 μM ATP
T3 construct: C-terminal 6His-tagged, recombinant full-length CDK2 (MW=34 kDa); 6His (C); made in house; host or cells: Sf21 cells (baculovirus)
Description: CDK2/cyclinE (Accession Number for CDK2; EMBL M68520, for cyclinE1; GenBank NM_001238):
C-terminal 6His-tagged, recombinant full-length CDK2 (MW=34 kDa) in complex with N-terminal GST-tagged, recombinant full-length cyclinE1 (MW=74 kDa) were expressed with baculovirus system in Sf21 cells. Recombinant proteins were purified using Ni2+/NTA agarose and the purity of recombinant protein complex was measured to be around 76% by SDS-PAGE and Coomassie blue staining. Specific Activity of recombinant CDK2/cyclinE was 1336 U/mg, where one unit of CDK2/cylinE1 activity is defined as 1 nmol phosphate incorporated into 0.1 mg/ml histone H1 per minute at 30° C. with a final ATP concentration of 100 μM. Enzyme was stored with concentration of 0.1 mg/ml in 50 mM Tris/HCl pH 7.5, 150 mM NaCl, 0.03% Brij-35, 0.1 mM EGTA, 0.2 mM PMSF, 1 mM benzamidine, 0.1% 2-mercaptoethanol, 270 mM sucrose.

CDK1/cyclinB = target: T4, CDK1/cyclinB (Homo sapiens, UniProt P06493); assay: CDK activity assay with p33 ATP, CDK1/cyclinB; settings: 1 μM ATP
T4 construct: C-terminal 6His-tagged human full length cdk1 (MW=35 kDa); 6His (C); made in house; host or cells: Sf21 insect cells (baculovirus)
T4 sequence (P06493 whole entry): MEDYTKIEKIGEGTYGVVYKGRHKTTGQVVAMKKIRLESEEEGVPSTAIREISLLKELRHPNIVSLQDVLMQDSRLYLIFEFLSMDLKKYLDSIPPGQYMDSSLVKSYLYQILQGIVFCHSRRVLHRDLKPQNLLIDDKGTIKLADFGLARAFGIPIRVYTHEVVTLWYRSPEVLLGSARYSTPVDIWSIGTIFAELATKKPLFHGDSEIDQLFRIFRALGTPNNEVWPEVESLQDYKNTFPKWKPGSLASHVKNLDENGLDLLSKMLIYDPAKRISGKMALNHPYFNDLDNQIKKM
T4 sequence (P14635 whole entry partner): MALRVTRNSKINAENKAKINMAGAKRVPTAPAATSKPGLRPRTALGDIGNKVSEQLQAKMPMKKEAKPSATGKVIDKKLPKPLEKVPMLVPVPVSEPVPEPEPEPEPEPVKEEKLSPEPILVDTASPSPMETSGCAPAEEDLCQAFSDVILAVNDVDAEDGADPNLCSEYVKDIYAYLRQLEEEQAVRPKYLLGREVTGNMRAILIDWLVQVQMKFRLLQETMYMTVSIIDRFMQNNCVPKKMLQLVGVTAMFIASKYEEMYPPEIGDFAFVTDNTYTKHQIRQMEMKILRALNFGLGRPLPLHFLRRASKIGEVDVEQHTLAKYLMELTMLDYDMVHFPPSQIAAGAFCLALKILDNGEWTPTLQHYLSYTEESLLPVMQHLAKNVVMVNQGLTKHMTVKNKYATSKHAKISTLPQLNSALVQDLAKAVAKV
From the text: CDK1/cyclinB (Accession Number for CDK1; GenBankNM_001786, for cyclinB; EMBL M25753):
C-terminal 6His-tagged human full length cdk1 (MW=35 kDa), and N-terminal GST-tagged human full length cyclin B (MW=75 kDa) were expressed individually with baculovirus system in Sf21 insect cells. Recombinant proteins were purified using Ni2+/NTA-agarose and GST-agarose, respectively. The cdk1 was then activated using CAK and repurified by Q Sepharose and Ni2+/NTA-agarose. They were then mixed in vitro to form protein complex. The purity of these protein complex was estimated to be 80.5% by SDSPAGE and Coomassie blue staining. Specific Activity of recombinant enzyme was measyre to be 1329 U/mg, where one unit of cdk1/cyclinB activity is defined as 1 nmol phosphate incorporated into 0.1 mg/ml histone H1 per minute at 30° C. with a final ATP concentration of […]. Enzyme was stored at concentration of 0.1 mg/ml in 50 mM Tris/HCl pH7.5, 150 mM NaCl, 0.1 mM EGTA, 0.03% Brij-35, 270 mM sucrose, 1 mM benzamidine, 0.2 mM PMSF, 0.1% 2-mercaptoethanol.

IC50 (HDAC) [nM] | IC50 (CDK6/cyclinD3) [nM] | IC50 (CDK4/cyclinD1) [nM] | IC50 (CDK2/cyclinE) [nM] | IC50 (CDK1/cyclinB) [nM] | SMILES
< 100 | 100 to 1000 | 100 to 1000 | < 100 | < 100 | CC(C)(C)c1cnc(CSc2cnc(NC(=O)CCCCCCC(=O)NO)s2)o1 [Compound 8, N^1-(5-((5-tert-butyloxazol-2-yl)methylthio)thiazol-2-yl)-N^8-hydroxyoctanediamide]
100 to 1000 | 100 to 1000 | < 100 | < 100 | < 100 | CC(C)(C)c1cnc(CSc2cnc(NC(=O)Cc3ccc(OCCCC(=O)NO)cc3)s2)o1 [Compound 9, 4-(4-(2-(5-((5-tert-butyloxazol-2-yl)methylthio)thiazol-2-ylamino)-2-oxoethyl)phenoxy)-N-hydroxybutanamide]
< 100 | 1000 to 10000 | 100 to 1000 | < 100 | < 100 | CC(C)(C)c1cnc(CSc2cnc(NC(=O)C3CCN(c4ncc(C(=O)NO)cn4)CC3)s2)o1 [Compound 20, 2-(4-(5-((5-tert-butyloxazol-2-yl)methylthio)thiazol-2-ylcarbamoyl)piperidin-1-yl)-N-hydroxypyrimidine-5-carboxamide]
